Values of other authors, collected in patent US11826492B2, “Intratumoral drug delivery materials and methods for treating breast cancer” (BIOTRONIK AG, priority 2016, dated 2023).
Where two headings read alike, the source gives them in different places.

Conditions: Porcine Coronary Arteries

| Normalized Uptake (ng drug/mg tissue/μg drug on balloon) (7 days) [ng/mg/µg] | Normalized Uptake (ng drug/mg tissue/μg drug on balloon) (3 days) [ng/mg/µg] | Compound |
| --- | --- | --- |
| 0.04 | – | CO[C@H]1C[C@@H]2CC[C@@H](C)[C@@](O)(O2)C(=O)C(=O)N2CCCC[C@H]2C(=O)O[C@H]([C@H](C)C[C@@H]2CC[C@H](n3cnnn3)[C@H](OC)C2)CC(=O)[C@H](C)/C=C(\C)[C@@H](O)[C@@H](OC)C(=O)[C@H](C)C[C@H](C)/C=C/C=C/C=C/1C [US 2014/0046254 Zotarolimus, Zotarolimus] |
| – | 0.02 | CO[C@H]1C[C@@H]2CC[C@@H](C)[C@@](O)(O2)C(=O)C(=O)N2CCCC[C@H]2C(=O)O[C@H]([C@H](C)C[C@@H]2CC[C@@H](OCCO)[C@H](OC)C2)CC(=O)[C@H](C)/C=C(\C)[C@@H](O)[C@@H](OC)C(=O)[C@H](C)C[C@H](C)/C=C/C=C/C=C/1C [US 2014/0046254 Everolimus, Everolimus] |
